Source: patent US9566262B2, “Itch suppression by fucoxanthin” (THE RITSUMEIKAN TRUST, priority 2015, dated 2017)

Assays:
GATA-luc = assay: Luciferase reporter assay in HEK293 cells; format: cell-based; conditions: HEK293, treated 3 hours after transfection for 48 hours, vs DMSO (fucoxanthin 0.1, 1, 10 μM)
Text: The plasmids pGL3-Cebpα promoter-luc and pGL3-Mitf1 promoter-luc were provided by Dr. Hua Huang (University of Colorado school, Denver, USA). The plasmid NF-κB-luc was purchased from Agilent Technologies (Santa Clara, Calif.). The GATA-responsive reporter vector was provided by Dr. Ishijima (Takasaki University of Health and welfare, Gunma, Japan). Three GATA motifs from mouse α-1 globulin gene (5′-TGATAA-3′) were tandemly inserted into Sma I site of pRBGP3. HDC promoter was provided by Dr. Ootsu (Tohoku University school of Medicine, Sendai, Japan) and cloned into Kpn I-Hind III site of pGL4.10 (Hdc promoter-luc). The reporter assay was performed according to the method described in Kanatani, N. et al. Briefly, HEK293 cells were transfected with each of the luciferase constructs (0.2 μg) or pRL-CMV (Promega, Madison, Wis.) (0.001 μg). At 3 hours after transfection, the cells were treated with fucoxanthin (0.1 μM, 1 μM or 10 μM) or DMSO for 48 hours and reporter assay was performed using Dual-Luciferase® Reporter Assay System (Promega). Luciferase activity was measured using luminometer model TD20/20n (Turner BioSystems, Sunnyvale, Calif.) and normalized to Renilla luciferase activity expressed by CMV promoter.
GATA-reporter assay was performed using HEK293 cells expressing GATA-luc prepared in Example 8, in the same manner as described in Example 8 except using various carotenoids (fucoxanthin, astaxanthin, lycopene, β-carotene or retinoic acid) in place of fucoxanthin.

[1] = test system: bone marrow-derived mast cells (BMMCs); assay: Granule formation in BMMCs, tryptase immunostaining; format: cell-based, mice; conditions: 10 μM, vs control-treated cells
Description: Mature mast cells were prepared in the same manner as described in Example 5. The BMMCs obtained were mounted on a glass slide and heat-fixed. The analysis of the preparation was performed according to the method described in Kosaka, T., Fukui, R., Matsui, M. et al. (2014) “RAGE, Receptor of Advanced Glycation Endoproducts, Negatively Regulates Chondrocytes Differentiation.” PLoS ONE 9(10): e108819. Briefly, the cells were reacted with a mouse anti-mast cell tryptase antibody (AB2378, Abcam, Tokyo, Japan) and then reacted with an FITC-conjugated anti-mouse IgG (Santa Cruz Biotechnology, Inc.) and 1 μg/mL DAPI (4′,6-diamino-2-phenylindole dihydrochloride). The fluorescent image was analyzed by EVOS® FL Cell Imaging System (Life Technologies Corp).
To confirm where the effect of fucoxanthin on granule formation in mast cells is specific rather than common to carotenoids, we compared granule formation between fucoxanthin-treated and astaxanthin-treated BMMCs by immunostaining of tryptase. The immunostaining assay was performed in the same manner as described in Example 6.

NC/Nga mice [2] = assay: Clinical symptoms of dermatitis in PiCl-sensitized NC/Nga mice; format: in vivo; conditions: topical application plus PiCl, at 5 weeks
Description: Next, we examined the effects of fucoxanthin and astaxanthin on clinical symptoms of dermatitis in NC/Nga mice. In the same manner as described in Example 2, fucoxanthin or astaxanthin and PiCl were applied to NC/Nga mice. […] In the same manner as described in Example 2, Vaseline, fucoxanthin or tacrolimus and PiCl were applied to NC/Nga mice. […] Also, serum IgE levels and swelling of the auricular lymph nodes of the mice were determined in the same manner as described in Example 2.

NC/Nga mice [3] = assay: Serum IgE content by ELISA in NC/Nga mice; format: in vivo; conditions: topical application for 5 weeks, PiCl-sensitized, vs Vaseline
Text: (§1) NC/Nga mice (5 weeks old, female) were purchased from Japan SLC, Inc. […] On day 12, day 19, day 26 and day 33 after starting application of Vaseline or fucoxanthin, 0.8% picryl chloride (PiCl) was further applied to the back skin of the mice. The behaviors of the mice were observed by video monitoring. On day 34 after starting application of Vaseline or fucoxanthin, bromodeoxyuridine (BrdU, Nacalai Tesque) (0.[…] weight) was intraperitoneally administered to the mice. At 5 weeks after starting application of Vaseline or fucoxanthin, the time each mouse spent for scratching behavior in 10 minutes was measured by video monitoring. Then, the mice were sacrificed and the auricular lymph node, blood and skin were obtained. Serum IgE content was determined by enzyme-linked immunosorbent assay (ELISA) using Mouse IgE Assay Kit (Morinaga Institute of Biological Science, Inc.). […] BrdU uptake was determined by ELISA using Cell Proliferation ELISA, BrdU (Colorimetric) (Roche Diagnostics K.K.). […] Also, serum IgE levels and swelling of the auricular lymph nodes of the mice were determined in the same manner as described in Example 2.

NC/Nga mice [4] = assay: Transdermal water loss (TEWL) in the skin of NC/Nga mice; format: in vivo; conditions: topical application plus PiCl, at 5 weeks, vs Vaseline
Description: Transdermal water loss (TEWL) in the skin of the mice treated with fucoxanthin was also measured and compared with that in the skin of the mice treated with tacrolimus.

NC/Nga mice [5] = assay: Swelling (length) of the auricular lymph node in NC/Nga mice; format: in vivo; conditions: topical application for 5 weeks, PiCl-sensitized, vs Vaseline
Text: as §1

## CC1=C(/C=C/C(C)=C/C=C/C(C)=C/C=C/C=C(C)/C=C/C=C(C)/C=C/C2=C(C)C(=O)[C@@H](O)CC2(C)C)C(C)(C)C[C@H](O)C1=O [astaxanthin, reference compound]
GATA-luc
  GATA-luc expression: not downregulated
[1]
  granule formation (tryptase-positive cells / immunoreactivity against tryptase): not significantly reduced

## CC(C)=CCC/C(C)=C/C=C/C(C)=C/C=C/C(C)=C/C=C/C=C(C)/C=C/C=C(C)/C=C/C=C(\C)CCC=C(C)C [lycopene]
GATA-luc
  GATA-luc expression: not downregulated

## C=CC[C@@H]1/C=C(\C)C[C@H](C)C[C@H](OC)[C@H]2O[C@@](O)(C(=O)C(=O)N3CCCC[C@H]3C(=O)O[C@H](/C(C)=C/[C@@H]3CC[C@@H](O)[C@H](OC)C3)[C@H](C)[C@@H](O)CC1=O)[C@H](C)C[C@@H]2OC [tacrolimus, reference compound]
NC/Nga mice [2]
  clinical symptoms of dermatitis (AD symptoms): protected AD symptoms partially
NC/Nga mice [3]
  serum IgE level: neither ear swelling (FIG. 9A) nor serum IgE level (FIG. 9B) were affected
NC/Nga mice [4]
  transdermal water loss (TEWL): did not affect TEWL
NC/Nga mice [5]
  swelling of the auricular lymph node (ear swelling): neither ear swelling (FIG. 9A) nor serum IgE level (FIG. 9B) were affected

## CC1=C(/C=C/C(C)=C/C=C/C(C)=C/C=C/C=C(C)/C=C/C=C(C)/C=C/C2=C(C)CCCC2(C)C)C(C)(C)CCC1 [β-carotene]
GATA-luc
  GATA-luc expression: rather upregulated
